What all share (assay): inhibition of tumour cell growth, NCI panel, 48 h
Test [1] has as its system A549 NSCLC.
The test system of test [2] is HCT-116 colon.
For test [3], the system named is HOP-92 NSCLC.
Test [4] relates to KM12 colon.
The test system of test [5] is MOLT-4 leukemia.
Test [6] has as its system OVCAR-3 ovarian.
Test [7] has as its system OVCAR-8 ovarian.
The subject of test [8] is SK-MEL-5 melanoma.
Test [9] has as its system U251 CNS.
Test [10] concerns UACC-62 melanoma.

This is an account of results in PubChem BioAssay (NCI).

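The compound was tested at five concentrations on cells cultured in 96-well plates, with a 48-hour exposure period. Here, GI50 denotes the concentration required for 50% inhibition of growth. The concentration for full growth arrest is given as TGI.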

`COc1ccc(CCCC(=O)O)c(C)c1`: the TGI in test [1] was > 100000 nM; in [2], > 100000 nM; in test [3], 90800 nM; in test [4] it was > 100000 nM; in test [5] it was > 100000 nM; in test [6], 97500 nM. Moreover, the TGI is > 100000 nM in [7], > 100000 nM in test [8], 60800 nM in test [9] and > 100000 nM in test [10].

As to `CCOC(=O)c1c(C)[nH]c(/C=C2\N=C(c3ccc[nH]3)C=C2OC)c1C`, the GI50 in test [1] is 45.7 nM; in test [2], < 10.7 nM; in test [3], 32.3 nM; in test [4], 15 nM; in test [5] it was < 12 nM; in test [6], 15.2 nM. The GI50 in [7] is 35.8 nM; in [8], 23.1 nM; in test [9], 52 nM; in test [10] it was 30.9 nM. For the same compound, the TGI turned out to be 1280 nM in test [1]; 79.2 nM in test [3]; 1320 nM in [4]; 3090 nM in [5]; 299 nM in [6]; 1610 nM in test [7]. Besides, the results for the TGI in test [8], in test [9] and in test [10] were 69.8 nM, 1590 nM and 90.4 nM, respectively.

In the case of `NC(Cc1c[nH]c2ccccc12)C(=O)O` (centres undefined), the TGI in test [1], in test [2], in [3], in test [4], in test [5] and in test [6] was > 300000 nM in each case. Also, the TGI in test [7] was > 248000 nM; in [8], > 300000 nM; in [9], > 300000 nM; in test [10] it was > 300000 nM.
